Patent publication US10759762B2, “Fluorescent synthetic retinoids” (High Force Research Limited, priority 2014, dated 2020)

What was measured:
[1] = Stability on exposure to light of wavelength 300 to 400 nm; assay type: physicochemical; details: 3 days exposure to light of wavelength 300 to 400 nm
Source text: Retinoid compounds such as ATRA are unstable upon storage. In particular, such compounds are susceptible to photoisomerisation and degradation upon exposure to light in the 300 to 400 nm region. […] Generally the compounds of formula 1 have far better stability than retinoids such as ATRA, in particular the compounds of formula 1 are far less susceptible to photoisomerisation. Generally, following 3 days exposure to light having a wavelength of 300 to 400 nm, the compounds of the present invention undergo far less isomerisation and degradation than ATRA. Typically at least 60% by weight of the compounds of the present invention remain (compared to less than 40% by weight ATRA) following 3 days exposure to light of wavelength 300 to 400 nm.

TERA-2 cells [2] = experiment: Immunocytochemical staining for nestin; assay type: cell-based
TERA-2 cells [3] = experiment: Immunocytochemical staining for cytokeratin 8 (CK8); assay type: cell-based; details: 10 μM vs 1 μM
TERA-2 cells [4] = experiment: Immunocytochemical staining for TUJ-1; assay type: cell-based; details: for TUJ-1 staining: 1 and 10 μM
Source text: DMSO treated cells show only limited TUJ-1 staining.

TERA-2 cells [5] = experiment: Immunocytochemical staining for Oct 4; assay type: cell-based
TERA-2 cells [6] = experiment: Immunocytochemical staining for Sox 2; assay type: cell-based; details: 1 and 10 μM
TERA-2 cells [7] = experiment: Flow cytometry, stem cell marker SSEA-3; assay type: cell-based; details: for expression of SSEA-3 compared to DMSO treated cells: flow cytometry
TERA-2 cells [8] = experiment: Flow cytometry, stem cell marker TRA160; assay type: cell-based; details: for expression of TRA160 compared to DMSO treated cells: flow cytometry
TERA-2 cells [9] = experiment: Flow cytometry, early neuronal marker A2B5; assay type: cell-based
Source text: ATRA treated cells express higher levels of A2B5 followed by EC23® and compound 9.

cell populations = experiment: Phase contrast images of treated cell populations; assay type: cell-based
Source text: In cell populations treated with DMSO, the cells are small, and densely packed together.

cells = experiment: MTT cell viability analysis; assay type: cell-based; details: compared to DMSO
[10] = background statement; cited from earlier work
[11] = background statement; cited from earlier work; remark: listed apart in the source
[12] = Light stability of compound 9 by 1H NMR under standard laboratory light; assay type: physicochemical
Experimental: A ^1H NMR spectrum of compound 9 in DMSO-d6 was recorded after storage at ambient temperature in the absence of light (FIG. 7). The same sample of compound 9 was then exposed to standard laboratory light at a distance of 30 cm for 72 hours, and the ^1H NMR spectrum recorded (FIG. 8). Compound 9 is stable towards typical laboratory lighting over this time period, although a small proportion converts to a structurally similar enamine form. Compound 9 remains stable until around 16 day's exposure, where some indication of degradation becomes apparent. More significant degradation is observed after 22 day's exposure, although compound 9 still represents the major constituent of the sample (>60%).

[13] = Initial fluorescence characterisation (absorption and emission spectra in solvents); assay type: physicochemical
Source text: Absorption and emission spectra of 9 were obtained in a variety of solvents (FIG. 3 and FIG. 4). […] The fluorescence emission wavelength is also highly dependent on solvent polarity, with a significant red shift occurring in polar solvents when compared to non polar solvents.
This absorption band peaks at around 379 nm, and trails into the indigo/blue (440 nm).

[14] = 1 M treatment (so in the source)
[15] = both 1 and 10 M treatments (so in the source)

Row | Compound | nestin staining (TERA-2 cells [2]; 10 μM treatment) | nestin staining (TERA-2 cells [2]; [14]) | CK8 staining intensity in 10 μM samples compared with 1 μM samples (TERA-2 cells [3]) | TUJ-1 staining with 10 μM treatment relative to 1 μM (TERA-2 cells [4]) | TUJ-1 staining (TERA-2 cells [4]) | Oct 4 staining (TERA-2 cells [5]; 1 μM) | Oct 4 staining (TERA-2 cells [5]; 10 μM) | Sox 2 staining compared to DMSO treated cells (TERA-2 cells [6]) | expression of SSEA-3 compared to DMSO treated cells (TERA-2 cells [7]) | expression of TRA160 compared to DMSO treated cells (TERA-2 cells [8]) | expression of A2B5 compared to DMSO treated cells (TERA-2 cells [9]) | cell population appearance in contrast to DMSO (small, densely packed) (cell populations) | MTT cell viability (cells; 1 μM treatment) | MTT cell viability (cells; 10 μM treatment) | stability on exposure to light [10] | other results
1 | CC1=C(/C=C/C(C)=C/C=C/C(C)=C/C(=O)O)C(C)(C)CCC1 [ATRA, All Trans-Retinoic Acid] | positive for nestin | positive for nestin | less intense | increased staining | significant staining | staining is also evident | do not exhibit staining | significantly reduced staining | significantly decreased | significantly decreased | significantly increased | less dense, and cells are much more spread out | comparable viability to DMSO | comparable viability to DMSO | poor stability | amount of compound remaining [1]: less than 40 % by weight; level of A2B5 relative to the other retinoids (TERA-2 cells [9]): higher levels
2 | CC1(C)CCC(C)(C)c2cc(C#Cc3ccc(C(=O)O)cc3)ccc21 [EC23®] | positive for nestin with staining possibly to a lesser extent | positive for nestin | less intense | increased staining | significant staining | do not exhibit staining | do not exhibit staining | significantly reduced staining | significantly decreased | significantly decreased | significantly increased | less dense, and cells are much more spread out | comparable viability to DMSO | comparable viability to DMSO | good stability | susceptibility to metabolic degradation [11]: not be susceptible
3 | CC(C)N1CCC(C)(C)c2cc(C#Cc3ccc(C(=O)O)cc3)ccc21 [compound 9, 4-2-[4,4-Dimethyl-1-(propan-2-yl)-1,2,3,4-tetrahydroquinolin-6-yl]ethynylbenzoic acid] | positive for nestin with staining possibly to a lesser extent | positive for nestin | slightly brighter | increased staining | significant staining | do not exhibit staining | do not exhibit staining | significantly reduced staining | significantly decreased | significantly decreased | significantly increased | less dense, and cells are much more spread out | comparable viability to DMSO | comparable viability to DMSO |  | exposure time until which compound remains stable (first indication of degradation) ([12]; DMSO-d6, standard laboratory light): around 16 day; stability towards typical laboratory lighting ([12]; DMSO-d6, standard laboratory light at 30 cm, 72 hours, ambient temperature): stable; share of the sample still compound 9 (major constituent) ([12]; after 22 day's exposure to laboratory light): > 60%; level of SSEA-3 relative to ATRA and EC23 (TERA-2 cells [7]; [15]): higher levels; level of TRA160 relative to ATRA and EC23 (TERA-2 cells [8]; [15]): slightly higher levels; lowest concentration at which fluorescence was easily detected ([13]; in solvents): 1 nM
4 | CC1=CC(C)(C)c2cc(C#Cc3ccc(C(=O)O)cc3)ccc2N1C(C)C [compound 17, 4-2-[2,4,4-Trimethyl-1-(propan-2-yl)-1,4-dihydroquinolin-6-yl]ethynyl benzoic acid] |  |  |  |  |  |  |  |  |  |  |  |  |  |  |  | peak of maximal absorption band ([13]; chloroform (FIG. 5)): around 379 nm
